Measured values: patent US20080200682A1, “Process of Producing Bleach Boosters” (BASF Aktiengesellschaft, priority 2005, published 2008)
Structures can show the parent of a compound that is named as a salt.

Key:
Format in all cases: biochemical
[1] = target: T1, Termamyl (amylase enzyme) (Bacillus licheniformis, UniProt P06278)
T1 construct: purchased Novozymes, Denmark

Duramyl (amylase enzyme) = experiment: Organic Catalyst/Enzyme Compatibility Test (alpha amylase activity assay), Duramyl; details: (Ac/Ab)x100 for Duramyl; [Peracetic Acid]=5.0 ppm; [organic catalyst]=0.5 ppm; detergent solution, 40° C.
[2] = tested on: Natalase (amylase enzyme); experiment: Organic Catalyst/Enzyme Compatibility Test (alpha amylase activity assay), Natalase; details: (Ac/Ab)x100 for Natalase; [Peracetic Acid]=5.0 ppm; [organic catalyst]=0.5 ppm; detergent solution, 40° C.
[3] = tested on: Amylase enzymes: Termamyl, Natalase, and Duramyl; experiment: Organic Catalyst/Enzyme Compatibility Test, average ECV of the three enzymes; details: ECV=(ECVter+ECVdur+ECVnat)/3; [Peracetic Acid]=5.0 ppm; [organic catalyst]=0.5 ppm

T1 sequence (P06278 30-512): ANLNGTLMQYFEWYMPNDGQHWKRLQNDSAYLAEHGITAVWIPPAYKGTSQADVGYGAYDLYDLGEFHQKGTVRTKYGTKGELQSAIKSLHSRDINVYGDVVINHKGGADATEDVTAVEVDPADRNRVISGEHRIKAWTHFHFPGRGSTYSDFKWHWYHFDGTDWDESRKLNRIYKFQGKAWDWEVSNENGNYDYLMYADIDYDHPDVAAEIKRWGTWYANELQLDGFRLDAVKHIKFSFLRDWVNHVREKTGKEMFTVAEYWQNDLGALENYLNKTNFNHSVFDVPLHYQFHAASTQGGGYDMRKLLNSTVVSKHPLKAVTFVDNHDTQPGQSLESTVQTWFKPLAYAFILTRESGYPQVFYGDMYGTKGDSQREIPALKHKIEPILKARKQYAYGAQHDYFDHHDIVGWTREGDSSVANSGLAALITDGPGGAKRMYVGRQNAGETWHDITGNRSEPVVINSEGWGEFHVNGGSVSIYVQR

| Molecule | Enzyme Compatibility Values ECVter [1] | Enzyme Compatibility Values ECVdur (Duramyl (amylase enzyme)) | Enzyme Compatibility Values ECVnat [2] | Enzyme Compatibility Values ECV [3] |
| --- | --- | --- | --- | --- |
| CCCCC(CC)COCC(C[N+]1=Cc2ccccc2CC1)OS(=O)(=O)[O-] (stereo not drawn) [Entry 2, reference compound] | 54 | 90 | 57 | 67 |
| CCCCCC(CCC)COCC(C[N+]1=Cc2ccccc2CC1)OS(=O)(=O)[O-] (stereo not drawn) [Entry 3, Sulfuric acid mono-[2-(3,4-dihydro-isoquinolin-2-yl)-1-(2-propylheptyloxymethyl)-ethyl]ester, internal salt] | 98 | 101 | 99 | 99 |
| CCCCCCC(CCCC)COCC(C[N+]1=Cc2ccccc2CC1)OS(=O)(=O)[O-] (stereo not drawn) [Entry 4, Sulfuric acid mono-[2-(3,4-dihydro-isoquinolin-2-yl)-1-(2-butyl-octyloxymethyl)-ethyl]ester, internal salt] | 101 | 101 | 102 | 101 |
| Sulfuric acid mono-[2-(3,4-dihydro-isoquinolin-2-yl)-1-(iso-decyloxymethyl)-ethyl]ester, internal salt [Entry 7] | 98 | 97 | 96 | 97 |
| Sulfuric acid mono-[2-(3,4-dihydro-isoquinolin-2-yl)-1-(iso-nonyloxymethyl)-ethyl]ester, internal salt [Entry 6] | 86 | 96 | 88 | 90 |
| Sulfuric acid mono-[2-(3,4-dihydro-isoquinolin-2-yl)-1-(iso-tridecyloxymethyl)-ethyl]ester, internal salt [Entry 8] | 99 | 100 | 101 | 100 |
